Laboratory results as given in the NIST ThermoML archive (doi:10.1016/j.jct.2017.03.006).

Experiment: xn = mol fraction of the nth substance listed
Settings: Liquid; for mass density: 313.15 K, Vibrating tube method; for viscosity: 323.15 K, 100 kPa, Concentric cylinders viscometry

Cc1ccc(C)c(C)c1 [1,2,4-trimethylbenzene] + CCC(C)O
mass density [kg/m3]
Settings | 50000 kPa | 60000 kPa | 70000 kPa | 80000 kPa | 90000 kPa | 100000 kPa | 110000 kPa | 120000 kPa | 130000 kPa | 140000 kPa
x2 = 0 | – | 895 | 899.9 | 904.6 | 909 | 913.3 | 917.4 | 921.4 | 925.2 | 928.9
x2 = 0.1 | – | 890.1 | 895.3 | 900.1 | 904.7 | 909.2 | 913.5 | 917.6 | 921.5 | 925.4
x2 = 0.1989 | – | 884.6 | 889.7 | 894.7 | 899.4 | 903.8 | 908.1 | 912.3 | 916.3 | 920.2
x2 = 0.3011 | – | 878.8 | 884.1 | 889 | 893.6 | 898.1 | 902.5 | 906.7 | 910.7 | 914.4
x2 = 0.4002 | – | 873.1 | 878.3 | 883.3 | 888.1 | 892.5 | 897 | 901.1 | 905.2 | 908.9
x2 = 0.5001 | – | 867.1 | 872.4 | 877.5 | 882.2 | 886.8 | 891.3 | 895.5 | 899.6 | 903.7
x2 = 0.5997 | 855 | 860.6 | 865.9 | 871 | 875.7 | 880.3 | 884.8 | 889.1 | 893.2 | 897.3
x2 = 0.6999 | 848.2 | 853.8 | 859.1 | 864.2 | 869 | 873.6 | 878.1 | 882.4 | 886.6 | 890.2
x2 = 0.7999 | 841.1 | 846.7 | 852.1 | 857.2 | 861.9 | 866.6 | 871.1 | 875.3 | 879.5 | 883.2
x2 = 0.9 | 833.3 | 839 | 844.4 | 849.5 | 854.3 | 859 | 863.5 | 867.7 | 871.9 | 875.6

Settings | viscosity [mPa·s]
x2 = 0 | 0.62
x2 = 0.1001 | 0.62
x2 = 0.2261 | 0.614
x2 = 0.3 | 0.616
x2 = 0.3966 | 0.646
x2 = 0.5298 | 0.658
x2 = 0.6001 | 0.71
